Results taken from patent US20030181527A1, “Novel formulations of alpha-2,4-disulfophenyl-n-tert-butylnitrone” (priority 2000, published 2003).

Key:
S. aureus = experiment: Antimicrobial efficacy (European Pharmacopoeia 2000, Chapter 5.1.3); format: cell-based
Protocol: The antimicrobial efficacy was tested for three different solutions: […] iii) a carbonate buffer control. The tests were performed according to European Pharmacopoeia 2000, Chapter 5.1.3, pages 259 to 260. Seven 10 ml vials were inoculated, one per test organism. During the tests, the vials were stored at controlled room temperature and protected from light. At different time intervals, samples were withdrawn and after appropriate dilutions the numbers of viable microorganisms (colony forming units per ml, CFU/ml) were determined using standard plate count procedures.

[1] = Shelf life of the preferred concentrate formulation; format: physicochemical; conditions: 400 mg/ml, 5 to 50 mM disodium hydrogen phosphate, pH 8.5, nitrogen purged, sealed 20 ml vials
[2] = Stability versus vial headspace volume (fill volume); format: physicochemical; conditions: 400 mg/ml; for Final Amount of Aldehyde (II): pH 8.5, headspace not purged, 2 months +40° C./75% RH
Protocol: A concentrated aqueous solution of α-(2,4-disulfophenyl)-N-tert-butylnitrone disodium salt (400 mg/ml) and disodium hydrogen phosphate (10.5 mM) at pH 8.5 was purged with nitrogen for 30 minutes. Either 8 ml or 13 ml portions of this solution were then placed in standard 10 ml glass vials (the maximum possible fill volume of a standard 10 ml glass vial is 13 ml). The headspace was not purged with nitrogen. The vials were sealed and stored at +40° C. and 75% relative humidity for two months.

[3] = Effect of concentration on stability, unbuffered solutions at +5° C.; format: physicochemical
Protocol: In a second study unbuffered aqueous solutions of α-(2,4-disulfophenyl)-N-tert-butylnitrone disodium salt (concentration either 100 mg/ml or 200 mg/ml) were dispensed into 50 ml glass vials and stored at +5° C.

Ps. aeruginosa = experiment: Antimicrobial efficacy (European Pharmacopoeia 2000, Chapter 5.1.3); format: cell-based
Protocol: The antimicrobial efficacy was tested for three different solutions:
i) α-(2,4-disulfophenyl)-N-tert-butylnitrone disodium salt, 10 mg/ml;
ii) α-(2,4-disulfophenyl)-N-tert-butylnitrone disodium salt, 400 mg/ml; and
iii) a carbonate buffer control.
The tests were performed according to European Pharmacopoeia 2000, Chapter 5.1.3, pages 259 to 260. Seven 10 ml vials were inoculated, one per test organism. During the tests, the vials were stored at controlled room temperature and protected from light. At different time intervals, samples were withdrawn and after appropriate dilutions the numbers of viable microorganisms (colony forming units per ml, CFU/ml) were determined using standard plate count procedures.

[4] = unbuffered 100 mg/ml, 12 months
[5] = unbuffered 200 mg/ml, 12 months

**Q.** With `CC(C)(C)[N+]([O-])=Cc1ccc(S(=O)(=O)[O-])cc1S(=O)(=O)[O-].[Na+].[Na+]` [α-(2,4-disulfophenyl)-N-tert-butylnitrone disodium salt] as the compound, how does the “Number of CFUs per ml - Time after Inoculation” value (“Number of CFUs per ml - Time” below) (S. aureus; 10 mg/ml, 6 h) read?
**A.** Its value is 4.5 × 10^5 CFUs per ml.

**Q.** And the “Number of CFUs per ml - Time” value (S. aureus; 10 mg/ml, 24 h)?
**A.** The value was 4.5 × 10^3 CFUs per ml.

**Q.** What about the “Number of CFUs per ml - Time” value (S. aureus; 10 mg/ml, 48 h) of the same compound?
**A.** The value was “≦10 CFUs per ml”.

**Q.** And the “Number of CFUs per ml - Time” value (S. aureus; 10 mg/ml, 7 days)?
**A.** The value was <1 CFUs per ml.

**Q.** And the “Number of CFUs per ml - Time” value (S. aureus; 10 mg/ml, 14 days)?
**A.** Its value is <1 CFUs per ml.

**Q.** And the “Number of CFUs per ml - Time” value (S. aureus; 10 mg/ml, 21 days)?
**A.** Its value is <1 CFUs per ml.

**Q.** What about the “Number of CFUs per ml - Time” value (S. aureus; 10 mg/ml, 28 days) of the same compound?
**A.** The value was <1 CFUs per ml.

**Q.** And the “Number of CFUs per ml - Time” value (S. aureus; 10 mg/ml, <1 min)?
**A.** Its value is 2.0 × 10^6 CFUs per ml.

**Q.** What about the “Number of CFUs per ml - Time” value (S. aureus; 400 mg/ml, 6 h) of the same compound?
**A.** The value was 6.7 × 10^5 CFUs per ml.

**Q.** What about the “Number of CFUs per ml - Time” value (S. aureus; 400 mg/ml, 24 h) of the same compound?
**A.** Its value is 8.7 × 10^2 CFUs per ml.

**Q.** What about the “Number of CFUs per ml - Time” value (S. aureus; 400 mg/ml, 48 h) of the same compound?
**A.** The value was 3.8 × 10^2 CFUs per ml.

**Q.** What about the “Number of CFUs per ml - Time” value (S. aureus; 400 mg/ml, 7 days) of the same compound?
**A.** The value was <1 CFUs per ml.

**Q.** And the “Number of CFUs per ml - Time” value (S. aureus; 400 mg/ml, 14 days)?
**A.** The value was <1 CFUs per ml.

**Q.** What about the “Number of CFUs per ml - Time” value (S. aureus; 400 mg/ml, 21 days) of the same compound?
**A.** Its value is <1 CFUs per ml.

**Q.** And the “Number of CFUs per ml - Time” value (S. aureus; 400 mg/ml, 28 days)?
**A.** Its value is <1 CFUs per ml.

**Q.** And the “Number of CFUs per ml - Time” value (S. aureus; 400 mg/ml, <1 min)?
**A.** Its value is 3.3 × 10^6 CFUs per ml.

**Q.** What about the “Remains in useable condition” value ([1]; stored at room temperature) of the same compound?
**A.** Its value is “at least 6 months”.

**Q.** What about the Shelf life ([1]; stored refrigerated (approximately 2 to 8° C.)) of the same compound?
**A.** The Shelf life was “at least 24 months”.

**Q.** And the Initial aldehyde level ([2]; 10.5 mM phosphate, pH 8.5, nitrogen purged, initial)?
**A.** The Initial aldehyde level was 0.1%.

**Q.** And the “Final Amount of Aldehyde (II)” value ([2]; fill volume 8 ml in 10 ml vial)?
**A.** Its value is 1.1 area %.

**Q.** What about the “Final Amount of Aldehyde (II)” value ([2]; fill volume 13 ml in 10 ml vial) of the same compound?
**A.** Its value is 0.6 area %.

**Q.** What about the “Amount of Aldehyde (II)” value ([3]; unbuffered 100 mg/ml, 0 months) of the same compound?
**A.** Its value is 0.2 Area %.

**Q.** And the pH ([3]; unbuffered 100 mg/ml, 0 months)?
**A.** Its pH is 7.4.

**Q.** What about the “Amount of Aldehyde (II)” value ([3]; unbuffered 100 mg/ml, 1 month) of the same compound?
**A.** The value was 0.5 Area %.

**Q.** And the pH ([3]; unbuffered 100 mg/ml, 1 month)?
**A.** Its pH is 7.5.

**Q.** What about the “Amount of Aldehyde (II)” value ([3]; unbuffered 100 mg/ml, 3 months) of the same compound?
**A.** Its value is 1.0 Area %.

**Q.** And the pH ([3]; unbuffered 100 mg/ml, 3 months)?
**A.** Its pH is 7.3.

**Q.** What about the “Amount of Aldehyde (II)” value ([3]; unbuffered 100 mg/ml, 6 months) of the same compound?
**A.** The value was 1.6 Area %.

**Q.** What about the pH ([3]; unbuffered 100 mg/ml, 6 months) of the same compound?
**A.** Its pH is 7.1.

**Q.** What about the “Amount of Aldehyde (II)” value [3, 4] of the same compound?
**A.** Its value is 1.6 Area %.

**Q.** And the pH [3, 4]?
**A.** The pH was 6.9.

**Q.** And the “Amount of Aldehyde (II)” value ([3]; unbuffered 200 mg/ml, 0 months)?
**A.** Its value is 0.2 Area %.

**Q.** And the pH ([3]; unbuffered 200 mg/ml, 0 months)?
**A.** Its pH is 7.6.

**Q.** And the “Amount of Aldehyde (II)” value ([3]; unbuffered 200 mg/ml, 1 month)?
**A.** Its value is 0.4 Area %.

**Q.** And the pH ([3]; unbuffered 200 mg/ml, 1 month)?
**A.** The pH was 7.6.

**Q.** And the “Amount of Aldehyde (II)” value ([3]; unbuffered 200 mg/ml, 3 months)?
**A.** Its value is 0.6 Area %.

**Q.** What about the pH ([3]; unbuffered 200 mg/ml, 3 months) of the same compound?
**A.** The pH was 7.4.

**Q.** What about the “Amount of Aldehyde (II)” value ([3]; unbuffered 200 mg/ml, 6 months) of the same compound?
**A.** Its value is 0.8 Area %.

**Q.** What about the pH ([3]; unbuffered 200 mg/ml, 6 months) of the same compound?
**A.** The pH was 7.4.

**Q.** And the “Amount of Aldehyde (II)” value [3, 5]?
**A.** Its value is 1.1 Area %.

**Q.** And the pH [3, 5]?
**A.** Its pH is 6.9.

**Q.** What about the “Number of CFUs per ml - Time” value (Ps. aeruginosa; 10 mg/ml, 6 h) of the same compound?
**A.** The value was 4.0 × 10^4 CFUs per ml.

**Q.** And the “Number of CFUs per ml - Time” value (Ps. aeruginosa; 10 mg/ml, 24 h)?
**A.** The value was 4.0 × 10^2 CFUs per ml.

**Q.** And the “Number of CFUs per ml - Time” value (Ps. aeruginosa; 10 mg/ml, 48 h)?
**A.** Its value is 3.5 × 10^2 CFUs per ml.

**Q.** And the “Number of CFUs per ml - Time” value (Ps. aeruginosa; 10 mg/ml, 7 days)?
**A.** Its value is “≦10 CFUs per ml”.

**Q.** And the “Number of CFUs per ml - Time” value (Ps. aeruginosa; 10 mg/ml, 14 days)?
**A.** The value was <1 CFUs per ml.

**Q.** And the “Number of CFUs per ml - Time” value (Ps. aeruginosa; 10 mg/ml, 21 days)?
**A.** Its value is <1 CFUs per ml.

**Q.** What about the “Number of CFUs per ml - Time” value (Ps. aeruginosa; 10 mg/ml, 28 days) of the same compound?
**A.** Its value is <1 CFUs per ml.

**Q.** And the “Number of CFUs per ml - Time” value (Ps. aeruginosa; 10 mg/ml, <1 min)?
**A.** Its value is 1.5 × 10^6 CFUs per ml.

**Q.** What about the “Number of CFUs per ml - Time” value (Ps. aeruginosa; 400 mg/ml, 6 h) of the same compound?
**A.** Its value is 1.4 × 10^1 CFUs per ml.

**Q.** And the “Number of CFUs per ml - Time” value (Ps. aeruginosa; 400 mg/ml, 24 h)?
**A.** Its value is <1 CFUs per ml.

**Q.** What about the “Number of CFUs per ml - Time” value (Ps. aeruginosa; 400 mg/ml, 48 h) of the same compound?
**A.** Its value is <1 CFUs per ml.

**Q.** What about the “Number of CFUs per ml - Time” value (Ps. aeruginosa; 400 mg/ml, 7 days) of the same compound?
**A.** Its value is <1 CFUs per ml.
